Legend:
Test in all cases: relative viability (nuclei count vs DMSO), 5 days (fraction); higher = more cells survive
NCI-H596 = tested on: NCI-H596
How it was run: (§1)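 For relative viability, nuclei counts in treated wells were divided by those in vehicle wells. Lung cancer cell lines had been pin-tool dosed in 1536-well plates the day after seeding and cultured for 5 days, then fixed and stained in one step (final 0.05% Triton X-100, 1% formaldehyde, 1 ug/ml Hoechst) and imaged at 4×. Doses were one drug alone or a fixed anchor-drug dose plus five library-drug doses (not always all listed) in √10 steps, and values are duplicate-plate medians.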

HOP-62 = tested on: HOP-62
How it was run: as §1

NCI-H1944 = tested on: NCI-H1944
How it was run: as §1

NCI-H1437 = tested on: NCI-H1437
How it was run: as §1

NCI-H3122 = tested on: NCI-H3122
How it was run: as §1

COR-L23 = tested on: COR-L23
How it was run: as §1

NCI-H661 = tested on: NCI-H661
How it was run: as §1

NCI-H1650 = tested on: NCI-H1650
How it was run: as §1

NCI-H1395 = tested on: NCI-H1395
How it was run: as §1

NCI-H2087 = tested on: NCI-H2087
How it was run: as §1

NCI-H1793 = tested on: NCI-H1793
How it was run: as §1

NCI-H441 = tested on: NCI-H441
How it was run: as §1

NCI-H2126 = tested on: NCI-H2126
How it was run: as §1

EPLC-272H = tested on: EPLC-272H
How it was run: as §1

HCC-78 = tested on: HCC-78
How it was run: as §1

NCI-H1666 = tested on: NCI-H1666
How it was run: as §1

ChaGo-K-1 = tested on: ChaGo-K-1
How it was run: as §1

LXF-289 = tested on: LXF-289
How it was run: as §1

HARA = tested on: HARA
How it was run: as §1

LCLC-97TM1 = tested on: LCLC-97TM1
How it was run: as §1

PC-14 = tested on: PC-14
How it was run: as §1

H3255 = tested on: H3255
How it was run: as §1

NCI-H2085 = tested on: NCI-H2085
How it was run: as §1

## CN1CCN(CCOc2cc(OC3CCOCC3)c3c(Nc4c(Cl)ccc5c4OCO5)ncnc3c2)CC1 [Saracatinib] + Nc1nc2[nH]cc(CCc3ccc(C(=O)N[C@@H](CCC(=O)O)C(=O)O)cc3)c2c(=O)[nH]1 [Pemetrexed] (partner 0.2 µM)
NCI-H596; first compound 0.02 µM
  relative viability: 0.522
NCI-H596; first compound 0.2 µM
  relative viability: 0.49
NCI-H596; first compound 0.6325 µM
  relative viability: 0.471
NCI-H596; first compound 2 µM
  relative viability: 0.479
HOP-62; first compound 0.02 µM
  relative viability: 0.377
HOP-62; first compound 0.2 µM
  relative viability: 0.33
HOP-62; first compound 0.6325 µM
  relative viability: 0.332
HOP-62; first compound 2 µM
  relative viability: 0.375
NCI-H1944; first compound 0.02 µM
  relative viability: 0.533
NCI-H1944; first compound 0.2 µM
  relative viability: 0.663
NCI-H1944; first compound 0.6325 µM
  relative viability: 0.626
NCI-H1944; first compound 2 µM
  relative viability: 0.429
NCI-H1437; first compound 0.02 µM
  relative viability: 0.329
NCI-H1437; first compound 0.2 µM
  relative viability: 0.247
NCI-H1437; first compound 0.6325 µM
  relative viability: 0.277
NCI-H1437; first compound 2 µM
  relative viability: 0.286
NCI-H3122; first compound 0.02 µM
  relative viability: 0.195
NCI-H3122; first compound 0.2 µM
  relative viability: 0.169
NCI-H3122; first compound 0.6325 µM
  relative viability: 0.197
NCI-H3122; first compound 2 µM
  relative viability: 0.169
COR-L23; first compound 0.02 µM
  relative viability: 0.211
COR-L23; first compound 0.2 µM
  relative viability: 0.2
COR-L23; first compound 0.6325 µM
  relative viability: 0.176
COR-L23; first compound 2 µM
  relative viability: 0.184
NCI-H661; first compound 0.02 µM
  relative viability: 0.942
NCI-H661; first compound 0.2 µM
  relative viability: 0.84
NCI-H661; first compound 0.6325 µM
  relative viability: 0.846
NCI-H661; first compound 2 µM
  relative viability: 0.699
NCI-H1650; first compound 0.02 µM
  relative viability: 0.343
NCI-H1650; first compound 0.2 µM
  relative viability: 0.357
NCI-H1650; first compound 0.6325 µM
  relative viability: 0.318
NCI-H1650; first compound 2 µM
  relative viability: 0.307
NCI-H1395; first compound 0.02 µM
  relative viability: 0.896
NCI-H1395; first compound 0.2 µM
  relative viability: 0.769
NCI-H1395; first compound 0.6325 µM
  relative viability: 0.846
NCI-H1395; first compound 2 µM
  relative viability: 0.612
NCI-H2087; first compound 0.02 µM
  relative viability: 0.63
NCI-H2087; first compound 0.2 µM
  relative viability: 0.722
NCI-H2087; first compound 0.6325 µM
  relative viability: 0.574
NCI-H2087; first compound 2 µM
  relative viability: 0.707
NCI-H1793; first compound 0.02 µM
  relative viability: 0.947
NCI-H1793; first compound 0.2 µM
  relative viability: 0.766
NCI-H1793; first compound 0.6325 µM
  relative viability: 0.743
NCI-H1793; first compound 2 µM
  relative viability: 0.568
NCI-H441; first compound 0.02 µM
  relative viability: 0.28
NCI-H441; first compound 0.2 µM
  relative viability: 0.238
NCI-H441; first compound 0.6325 µM
  relative viability: 0.316
NCI-H441; first compound 2 µM
  relative viability: 0.272
NCI-H2126; first compound 0.02 µM
  relative viability: 0.772
NCI-H2126; first compound 0.2 µM
  relative viability: 0.664
NCI-H2126; first compound 0.6325 µM
  relative viability: 0.659
NCI-H2126; first compound 2 µM
  relative viability: 0.558
EPLC-272H; first compound 0.02 µM
  relative viability: 0.334
EPLC-272H; first compound 0.2 µM
  relative viability: 0.313
EPLC-272H; first compound 0.6325 µM
  relative viability: 0.239
EPLC-272H; first compound 2 µM
  relative viability: 0.251
HCC-78; first compound 0.02 µM
  relative viability: 0.916
HCC-78; first compound 0.6325 µM
  relative viability: 0.925
HCC-78; first compound 2 µM
  relative viability: 0.841
NCI-H1666; first compound 0.02 µM
  relative viability: 0.877
NCI-H1666; first compound 0.2 µM
  relative viability: 0.508
NCI-H1666; first compound 0.6325 µM
  relative viability: 0.878
NCI-H1666; first compound 2 µM
  relative viability: 0.841
ChaGo-K-1; first compound 0.02 µM
  relative viability: 0.28
ChaGo-K-1; first compound 0.2 µM
  relative viability: 0.254
ChaGo-K-1; first compound 0.6325 µM
  relative viability: 0.26
ChaGo-K-1; first compound 2 µM
  relative viability: 0.269
LXF-289; first compound 0.02 µM
  relative viability: 0.875
LXF-289; first compound 0.2 µM
  relative viability: 0.902
LXF-289; first compound 0.6325 µM
  relative viability: 0.985
LXF-289; first compound 2 µM
  relative viability: 1
HARA; first compound 0.02 µM
  relative viability: 0.268
HARA; first compound 0.2 µM
  relative viability: 0.266
HARA; first compound 0.6325 µM
  relative viability: 0.191
HARA; first compound 2 µM
  relative viability: 0.213
LCLC-97TM1; first compound 0.02 µM
  relative viability: 0.18
LCLC-97TM1; first compound 0.2 µM
  relative viability: 0.134
LCLC-97TM1; first compound 0.6325 µM
  relative viability: 0.172
LCLC-97TM1; first compound 2 µM
  relative viability: 0.136
PC-14; first compound 0.02 µM
  relative viability: 0.133
PC-14; first compound 0.2 µM
  relative viability: 0.114
PC-14; first compound 0.6325 µM
  relative viability: 0.118
PC-14; first compound 2 µM
  relative viability: 0.111
H3255; first compound 0.02 µM
  relative viability: 0.591
H3255; first compound 0.2 µM
  relative viability: 0.514
H3255; first compound 0.6325 µM
  relative viability: 0.521
H3255; first compound 2 µM
  relative viability: 0.421
NCI-H2085; first compound 0.02 µM
  relative viability: 0.929
NCI-H2085; first compound 0.2 µM
  relative viability: 0.838
NCI-H2085; first compound 0.6325 µM
  relative viability: 0.85
NCI-H2085; first compound 2 µM
  relative viability: 0.63

Source: the supplement of paper PMC10307832
